# Experimental data published in PubChem BioAssay (NCI).
#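 Interpolation was linear, between the two tested concentrations surrounding the appropriate level; five concentrations were tested over 48 hours in 96-well plates. GI50: concentration for 50% inhibition of growth. At the TGI there is no net growth.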
# Key:
# Test in all cases: NCI anticancer screen, dose series, 48 h
# NCI-H522 lung = tested on: NCI-H522 lung
# CCRF-CEM leukemia = tested on: CCRF-CEM leukemia
# UACC-257 melanoma = tested on: UACC-257 melanoma
# HCT-116 colon = tested on: HCT-116 colon
# HT29 colon = tested on: HT29 colon
# T-47D breast = tested on: T-47D breast
# A549 NSCLC = tested on: A549 NSCLC
# MOLT-4 leukemia = tested on: MOLT-4 leukemia
# SW-620 colon = tested on: SW-620 colon
# NCI/ADR-RES ovarian = tested on: NCI/ADR-RES ovarian
# HCT-15 colon = tested on: HCT-15 colon
# PC-3 prostate = tested on: PC-3 prostate
# K-562 leukemia = tested on: K-562 leukemia
# DU-145 prostate = tested on: DU-145 prostate
# CAKI-1 renal = tested on: CAKI-1 renal
# MALME-3M melanoma = tested on: MALME-3M melanoma
# BT-549 breast = tested on: BT-549 breast
# RPMI-8226 leukemia = tested on: RPMI-8226 leukemia
# IGROV1 ovarian = tested on: IGROV1 ovarian
# OVCAR-5 ovarian = tested on: OVCAR-5 ovarian
# MDA-MB-435 = tested on: MDA-MB-435
# M14 melanoma = tested on: M14 melanoma
# SNB-19 CNS = tested on: SNB-19 CNS
# MDA-MB-231 breast = tested on: MDA-MB-231 breast
# SNB-75 CNS = tested on: SNB-75 CNS
# NCI-H460 lung = tested on: NCI-H460 lung
# SK-OV-3 ovarian = tested on: SK-OV-3 ovarian
# SF-295 CNS = tested on: SF-295 CNS
# SF-268 CNS = tested on: SF-268 CNS
# 786-0 renal = tested on: 786-0 renal
# ACHN renal = tested on: ACHN renal
# RXF 393 renal = tested on: RXF 393 renal
# SK-MEL-2 melanoma = tested on: SK-MEL-2 melanoma
# EKVX NSCLC = tested on: EKVX NSCLC
# SR leukemia = tested on: SR leukemia
# UACC-62 melanoma = tested on: UACC-62 melanoma
# TK-10 renal = tested on: TK-10 renal
# HOP-62 NSCLC = tested on: HOP-62 NSCLC
# U251 CNS = tested on: U251 CNS
# HCC-2998 colon = tested on: HCC-2998 colon
# UO-31 renal = tested on: UO-31 renal
# OVCAR-3 ovarian = tested on: OVCAR-3 ovarian
# SN12C renal = tested on: SN12C renal
# COLO 205 colon = tested on: COLO 205 colon
# SF-539 CNS = tested on: SF-539 CNS
# NCI-H226 lung = tested on: NCI-H226 lung
# SK-MEL-28 melanoma = tested on: SK-MEL-28 melanoma
# SK-MEL-5 melanoma = tested on: SK-MEL-5 melanoma
# OVCAR-8 ovarian = tested on: OVCAR-8 ovarian
# NCI-H23 lung = tested on: NCI-H23 lung
# KM12 colon = tested on: KM12 colon
# OVCAR-4 ovarian = tested on: OVCAR-4 ovarian
# LOX IMVI melanoma = tested on: LOX IMVI melanoma
structure (smiles),measurement,setting,value
Cc1nn2c(/C=N/N=C(N)N)c(-c3ccc(Cl)c([N+](=O)[O-])c3)nc2s1,GI50,NCI-H522 lung,7.04 µM
same,TGI,NCI-H522 lung,46.7 µM
same,GI50,CCRF-CEM leukemia,0.368 µM
same,TGI,CCRF-CEM leukemia,0.751 µM
same,GI50,UACC-257 melanoma,6.14 µM
same,TGI,UACC-257 melanoma,11.7 µM
same,GI50,HCT-116 colon,0.192 µM
same,TGI,HCT-116 colon,0.374 µM
same,GI50,HT29 colon,0.236 µM
same,GI50,T-47D breast,0.481 µM
same,GI50,A549 NSCLC,4.96 µM
same,TGI,A549 NSCLC,17.5 µM
same,GI50,MOLT-4 leukemia,2.88 µM
same,TGI,MOLT-4 leukemia,5.61 µM
same,GI50,SW-620 colon,0.444 µM
same,TGI,SW-620 colon,1.72 µM
same,GI50,NCI/ADR-RES ovarian,3.61 µM
same,TGI,NCI/ADR-RES ovarian,15 µM
same,GI50,HCT-15 colon,1.43 µM
same,TGI,HCT-15 colon,3.72 µM
same,GI50,PC-3 prostate,1.14 µM
same,TGI,PC-3 prostate,2.83 µM
same,GI50,K-562 leukemia,2.98 µM
same,TGI,K-562 leukemia,9.63 µM
same,GI50,DU-145 prostate,2.32 µM
same,TGI,DU-145 prostate,4.98 µM
same,GI50,CAKI-1 renal,1.47 µM
same,TGI,CAKI-1 renal,2.85 µM
same,GI50,MALME-3M melanoma,2.44 µM
same,TGI,MALME-3M melanoma,4.14 µM
same,GI50,BT-549 breast,21.6 µM
same,TGI,BT-549 breast,48.3 µM
same,GI50,RPMI-8226 leukemia,0.791 µM
same,TGI,RPMI-8226 leukemia,1.76 µM
same,GI50,IGROV1 ovarian,6.2 µM
same,TGI,IGROV1 ovarian,22.1 µM
same,GI50,OVCAR-5 ovarian,1.42 µM
same,TGI,OVCAR-5 ovarian,3.15 µM
same,GI50,MDA-MB-435,0.204 µM
same,TGI,MDA-MB-435,0.363 µM
same,GI50,M14 melanoma,1.72 µM
same,TGI,M14 melanoma,3.3 µM
same,GI50,SNB-19 CNS,0.543 µM
same,TGI,SNB-19 CNS,> 100 µM
same,GI50,MDA-MB-231 breast,2.03 µM
same,TGI,MDA-MB-231 breast,3.66 µM
same,GI50,SNB-75 CNS,1.36 µM
same,TGI,SNB-75 CNS,2.94 µM
same,GI50,NCI-H460 lung,1.18 µM
same,GI50,SK-OV-3 ovarian,2.85 µM
same,TGI,SK-OV-3 ovarian,6.75 µM
same,GI50,SF-295 CNS,0.615 µM
same,TGI,SF-295 CNS,1.94 µM
same,GI50,SF-268 CNS,1.22 µM
same,GI50,786-0 renal,0.249 µM
same,TGI,786-0 renal,0.442 µM
same,GI50,ACHN renal,0.966 µM
same,TGI,ACHN renal,2.58 µM
same,GI50,RXF 393 renal,3.4 µM
same,GI50,SK-MEL-2 melanoma,2.53 µM
same,TGI,SK-MEL-2 melanoma,6.46 µM
same,GI50,EKVX NSCLC,25.3 µM
same,TGI,EKVX NSCLC,69.6 µM
same,GI50,SR leukemia,2.53 µM
same,TGI,SR leukemia,4.9 µM
same,GI50,UACC-62 melanoma,2.06 µM
same,TGI,UACC-62 melanoma,3.58 µM
same,GI50,TK-10 renal,2.06 µM
same,TGI,TK-10 renal,3.56 µM
same,GI50,HOP-62 NSCLC,0.262 µM
same,TGI,HOP-62 NSCLC,0.529 µM
same,GI50,U251 CNS,0.285 µM
same,TGI,U251 CNS,0.597 µM
same,GI50,HCC-2998 colon,1.42 µM
same,TGI,HCC-2998 colon,2.91 µM
same,GI50,UO-31 renal,20.9 µM
same,TGI,UO-31 renal,41.1 µM
same,GI50,OVCAR-3 ovarian,0.488 µM
same,TGI,OVCAR-3 ovarian,1.52 µM
same,GI50,SN12C renal,0.763 µM
same,TGI,SN12C renal,1.58 µM
same,GI50,COLO 205 colon,0.457 µM
same,TGI,COLO 205 colon,61.7 µM
same,GI50,SF-539 CNS,2.07 µM
same,TGI,SF-539 CNS,3.63 µM
CC12CCC([C@H](Nc3cc(C(F)(F)F)cc(C(F)(F)F)c3)C1=O)C2(C)C (stereo not given in full),TGI,NCI-H226 lung,> 100 µM
same,TGI,UACC-257 melanoma,> 100 µM
same,TGI,HCT-116 colon,> 100 µM
same,TGI,SK-MEL-28 melanoma,> 100 µM
same,TGI,HT29 colon,> 100 µM
same,TGI,SK-MEL-5 melanoma,> 100 µM
same,TGI,T-47D breast,> 100 µM
same,TGI,A549 NSCLC,> 100 µM
same,TGI,OVCAR-8 ovarian,> 100 µM
same,TGI,MOLT-4 leukemia,> 100 µM
same,TGI,SW-620 colon,> 100 µM
same,TGI,NCI/ADR-RES ovarian,> 100 µM
same,TGI,HCT-15 colon,> 100 µM
same,TGI,PC-3 prostate,> 100 µM
same,TGI,K-562 leukemia,> 100 µM
same,TGI,DU-145 prostate,> 100 µM
same,TGI,CAKI-1 renal,> 100 µM
same,TGI,MALME-3M melanoma,> 100 µM
same,TGI,BT-549 breast,> 100 µM
same,TGI,IGROV1 ovarian,> 100 µM
same,TGI,OVCAR-5 ovarian,> 100 µM
same,TGI,NCI-H23 lung,> 100 µM
same,TGI,MDA-MB-435,> 100 µM
same,TGI,M14 melanoma,> 100 µM
same,TGI,KM12 colon,> 100 µM
same,TGI,SNB-19 CNS,> 100 µM
same,TGI,MDA-MB-231 breast,> 100 µM
same,TGI,SK-OV-3 ovarian,> 100 µM
same,TGI,SF-295 CNS,> 100 µM
same,TGI,SF-268 CNS,> 100 µM
same,TGI,786-0 renal,> 100 µM
same,TGI,ACHN renal,> 100 µM
same,TGI,RXF 393 renal,28 µM
same,TGI,SK-MEL-2 melanoma,> 100 µM
same,TGI,EKVX NSCLC,> 100 µM
same,TGI,SR leukemia,> 100 µM
same,TGI,TK-10 renal,> 100 µM
same,TGI,HOP-62 NSCLC,> 100 µM
same,TGI,OVCAR-4 ovarian,> 100 µM
same,TGI,HCC-2998 colon,> 100 µM
same,TGI,LOX IMVI melanoma,> 100 µM
same,TGI,UO-31 renal,> 100 µM
same,TGI,OVCAR-3 ovarian,> 100 µM
same,TGI,COLO 205 colon,> 100 µM
same,TGI,SF-539 CNS,> 100 µM
